Where two headings read alike, the source gives them in different places.
What was measured:
[1] = tested on: primary human T-cells; test: Proliferation assay after 5 days (CellTiter-Glo, CD3 stimulation; PBS counter screen); type: cell-based; details: T-cell, 120 h, CD3 stimulation; for Emax: 5 days, normalized to reference compound A1 as stimulator control = 100%, DMSO neutral control, read-out: Emax proliferation (% activation); for EC50: primary human T-cells, CellTiter-Glo after 5 days, EC50 of fitted sigmoidal curve, read-out: Tcell Proliferation CD3 EC50
Method in brief: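 Primary human T-cells, with or without CD3 stimulation, exposed to compounds for 5 days; cell number read as ATP by CellTiter-Glo 2.0 luminescence after 45 min equilibration and 15 min reagent incubation at room temperature. Compounds activating unstimulated cells or reducing viability were flagged.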

[2] = tested on: primary human T-cells

EC50 [2] [nM]	Compound	Emax ([1]; Homo sapiens) [%]	EC50 [1] [nM]	EC50 ([1]; Homo sapiens) [nM]
981	CC(C)(C#N)c1nnc(-c2ccc3c(c2)N(Cc2ccc(Cl)cc2)C(=O)[C@@H](N)CS3(=O)=O)o1 [Example 364, 2-[5-[(3R)-3-amino-5-[(4-chlorophenyl)methyl]-1,1,4-trioxo-2,3-dihydro-1λ^6,5-benzothiazepin-7-yl]-1,3,4-oxadiazol-2-yl]-2-methyl-propanenitrile]	108	–	928
957	COC1(c2nnc(-c3ccc4c(c3)N(Cc3ccc(Cl)cc3)C(=O)[C@@H](N)CS4(=O)=O)o2)CC1 [Example 365, (3R)-3-amino-5-[(4-chlorophenyl)methyl]-7-[5-(1-methoxycyclopropyl)-1,3,4-oxadiazol-2-yl]-1,1-dioxo-2,3-dihydro-1λ^6,5-benzothiazepin-4-one]	142	–	686
584	N[C@H]1CS(=O)(=O)c2ccc(-c3nnc(C4(C(F)(F)F)CC4)o3)cc2N(Cc2ccc(Cl)cc2)C1=O [Example 366, (3R)-3-amino-5-[(4-chlorophenyl)methyl]-1,1-dioxo-7-[5-[1-(trifluoromethyl)cyclopropyl]-1,3,4-oxadiazol-2-yl]-2,3-dihydro-1λ^6,5-benzothiazepin-4-one]	106	–	677
576	CC(C#N)c1nnc(-c2ccc3c(c2)N(Cc2ccc(Cl)cc2)C(=O)[C@@H](N)CS3(=O)=O)o1 (stereo partly drawn) [Example 367, 2-[5-[(3R)-3-amino-5-[(4-chlorophenyl)methyl]-1,1,4-trioxo-2,3-dihydro-1λ^6,5-benzothiazepin-7-yl]-1,3,4-oxadiazol-2-yl]propanenitrile]	87	–	3690
5550	COC(C)(C)c1nnc(-c2ccc3c(c2)N(Cc2ccc(Cl)cc2)C(=O)[C@@H](N)CS3(=O)=O)o1 [Example 368]	103	–	6560
5100	COC(C#N)c1nnc(-c2ccc3c(c2)N(Cc2ccc(Cl)cc2)C(=O)[C@@H](N)CS3(=O)=O)o1 (stereo partly drawn) [Example 370, 2-[5-[(3R)-3-amino-5-[(4-chlorophenyl)methyl]-1,1,4-trioxo-2,3-dihydro-1λ^6,5-benzothiazepin-7-yl]-1,3,4-oxadiazol-2-yl]-2-methoxy-acetonitrile]	31	–	> 10000
> 10000	COC1(c2nnc(-c3ccc4c(c3)N(Cc3ccc(Cl)cc3)C(=O)[C@@H](N)CS4(=O)=O)o2)CCOCC1 [Example 371, (3R)-3-amino-5-[(4-chlorophenyl)methyl]-7-[5-(4-methoxytetrahydropyran-4-yl)-1,3,4-oxadiazol-2-yl]-1,1-dioxo-2,3-dihydro-1λ^6,5-benzothiazepin-4-one]	84	–	2760
1290	COC(C)(c1nnc(-c2ccc3c(c2)N(Cc2ccc(Cl)cc2)C(=O)[C@@H](N)CS3(=O)=O)o1)C(F)(F)F (stereo partly drawn) [Example 372, (3R)-3-amino-5-[(4-chlorophenyl)methyl]-1,1-dioxo-7-[5-(2,2,2-trifluoro-1-methoxy-1-methyl-ethyl)-1,3,4-oxadiazol-2-yl]-2,3-dihydro-1λ^6,5-benzothiazepin-4-one]	118	–	367
15100	N[C@H]1CS(=O)(=O)c2ccc(-c3nnc(-c4ccccc4)o3)cc2N(Cc2ccc(Cl)cc2)C1=O [Example 374, (3R)-3-amino-5-[(4-chlorophenyl)methyl]-1,1-dioxo-7-(5-phenyl-1,3,4-oxadiazol-2-yl)-2,3-dihydro-1λ^6,5-benzothiazepin-4-one]	52	–	> 10000
461	N[C@H]1CS(=O)(=O)c2ccc(-c3nnc(-c4ccc(F)cc4)o3)cc2N(Cc2ccc(Cl)cc2)C1=O [Example 375, (3R)-3-amino-5-[(4-chlorophenyl)methyl]-7-[5-(4-fluorophenyl)-1,3,4-oxadiazol-2-yl]-1,1-dioxo-2,3-dihydro-1λ^6,5-benzothiazepin-4-one]	62	–	817
3200	N[C@H]1CS(=O)(=O)c2ccc(-c3nnc(-c4ccccc4F)o3)cc2N(Cc2ccc(Cl)cc2)C1=O [Example 376, (3R)-3-amino-5-[(4-chlorophenyl)methyl]-7-[5-(2-fluorophenyl)-1,3,4-oxadiazol-2-yl]-1,1-dioxo-2,3-dihydro-1λ^6,5-benzothiazepin-4-one]	70	–	4460
1720	Cc1ccc(-c2nnc(-c3ccc4c(c3)N(Cc3ccc(Cl)cc3)C(=O)[C@@H](N)CS4(=O)=O)o2)cc1 [Example 377, (3R)-3-amino-5-[(4-chlorophenyl)methyl]-1,1-dioxo-7-[5-(p-tolyl)-1,3,4-oxadiazol-2-yl]-2,3-dihydro-1λ^6,5-benzothiazepin-4-one]	38	–	319
> 10000	COC1(c2nnc(-c3ccc4c(c3)N(Cc3ccc(Cl)cc3)C(=O)[C@@H](N)CS4(=O)=O)o2)CCC(F)(F)CC1 [Example 378, (3R)-3-amino-5-[(4-chlorophenyl)methyl]-7-[5-(4,4-difluoro-1-methoxy-cyclohexyl)-1,3,4-oxadiazol-2-yl]-1,1-dioxo-2,3-dihydro-1λ^6,5-benzothiazepin-4-one]	74	–	447
819	[2H]C([2H])([2H])C(c1nnc(-c2ccc3c(c2)N(Cc2ccc(Cl)cc2)C(=O)[C@@H](N)CS3(=O)=O)o1)(C([2H])([2H])[2H])C([2H])([2H])[2H] [Example 380, (3R)-3-amino-5-[(4-chlorophenyl)methyl]-1,1-dioxo-7-[5-[2,2,2-trideuterio-1,1-bis(trideuteriomethyl)ethyl]-1,3,4-oxadiazol-2-yl]-2,3-dihydro-1λ^6,5-benzothiazepin-4-one]	132	–	613
1680	CC1(c2nnc(-c3ccc4c(c3)N(Cc3ccc(Cl)cc3)C(=O)[C@@H](N)CS4(=O)=O)o2)CCN(C(=O)OCC(F)(F)F)CC1 [Example 382, 2,2,2-trifluoroethyl 4-[5-[(3R)-3-amino-5-[(4-chlorophenyl)methyl]-1,1,4-trioxo-2,3-dihydro-1λ^6,5-benzothiazepin-7-yl]-1,3,4-oxadiazol-2-yl]-4-methyl-piperidine-1-carboxylate]	100	–	893

Compound	EC50 [2] [nM]	Emax ([1]; Homo sapiens) [%]	EC50 [1] [nM]	EC50 ([1]; Homo sapiens) [nM]
N[C@H]1CS(=O)(=O)c2ccc(-c3nnc(C(F)(F)C(F)(F)F)o3)cc2N(Cc2ccc(Cl)cc2)C1=O [Example 363, (3R)-3-amino-5-[(4-chlorophenyl)methyl]-1,1-dioxo-7-[5-(1,1,2,2,2-pentafluoroethyl)-1,3,4-oxadiazol-2-yl]-2,3-dihydro-1λ^6,5-benzothiazepin-4-one]	2170	50	> 10000	–
N[C@H]1CS(=O)(=O)c2ccc(-c3nnc(C(F)C(F)(F)F)o3)cc2N(Cc2ccc(Cl)cc2)C1=O (stereo partly drawn) [Example 369, (3R)-3-amino-5-[(4-chlorophenyl)methyl]-1,1-dioxo-7-[5-(1,2,2,2-tetrafluoroethyl)-1,3,4-oxadiazol-2-yl]-2,3-dihydro-1λ^6,5-benzothiazepin-4-one]	1700	114	466	–

— US20240368150A1 (Hoffmann-La Roche Inc., priority 2021, published 2024)
